In US12378224B2 (Dong-A Socio Holdings Co., Ltd., priority 2016, dated 2025):
pIC50: −log10 of the molar value.

Biological target: human c-MER catalytic domain (Homo sapiens (Human), UniProt Q12866)
Assay: TR-FRET Kinase Activity Biochemical Assay (LanthaScreen)
Conditions: 10 uM ATP, 1 hour, kinase not given
From the text: For the SAR (structure-activity relationship) and compound screening, LanthaScreen™ TR-FRET (Time-Resolved fluorescence energy transfer) assay was employed using the phospho-tyrosine specific Terbium (Tb)-labelded antibody with a fluorescein labeled poly-GT (glutamate-tyrosine) as a substrate. Upon excitation at 340 nm by UV, the energy from Tb donor of the antibody is transferred to the fluorescein of the phosphorylated poly GT substrate, and fluorescein emits light at 520 nm. The ratio between the intensity of […] was used to quantify the level of kinase activity. The recombinant proteins of human c-MER and AXL catalytic domains, Fluorescein-labeled poly-GT substrate, Tb-labeled anti-phosphorylated tyrosine antibodies, the kinase assay buffer, and 0.5M EDTA solution were purchased (Life technologies, USA). The TR-FRET assays were carried out in the white low volume 384-well plate (Corning, USA). […] 10 mM EDTA was added to terminate the enzyme reaction, and the level of phosphorylation of poly-GT substrate was determined following 30 min incubation with 2 nM Tb-labeled antibody. The fluorescence intensity was measured with Envision™ plate reader (PerkinElmer, USA).

Chain of human c-MER catalytic domain (Q12866 587-858): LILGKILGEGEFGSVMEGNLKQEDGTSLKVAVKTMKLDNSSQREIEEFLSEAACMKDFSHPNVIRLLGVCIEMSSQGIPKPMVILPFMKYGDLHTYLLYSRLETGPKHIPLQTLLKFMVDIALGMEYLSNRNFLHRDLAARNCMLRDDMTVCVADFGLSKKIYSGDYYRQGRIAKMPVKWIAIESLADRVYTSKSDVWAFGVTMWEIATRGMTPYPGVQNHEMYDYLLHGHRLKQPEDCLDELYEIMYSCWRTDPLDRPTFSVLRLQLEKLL

Cn1cc(-c2cnc(N)c(C(=O)NC3CN(C(=O)c4ccc(-c5ccccc5)cc4)C3)c2)cn1 [Example 344, N-(1-([1,1′-biphenyl]-4-carbonyl)azetidin-3-yl)-2-amino-5-(1-methyl-1H-pyrazol-4-yl)nicotinamide]
pIC50: < 6.00

Cn1cc(-c2cnc3[nH]nc(N[C@@H]4CCN(C(=O)c5ccc(Oc6ccccc6)cc5)C4)c3c2)cn1 [Example 791, (R)-(3-((5-(1-methyl-1H-pyrazol-4-yl)-1H-pyrazolo[3,4-b]pyridin-3-yl)amino)pyrrolidin-1-yl)(4-phenoxyphenyl)methanone]
pIC50: 6.00 to 7.00

Cn1cc(-c2cnc(N)c(C(=O)N[C@@H]3CCN(C(=O)Oc4cccc(-c5cccc(CN6CCC(N)CC6)c5)c4)C3)c2)cn1 [Example 340, 3′-((4-aminopiperidin-1-yl)methyl)-[1,1′-biphenyl]-3-yl (R)-3-(2-amino-5-(1-methyl-1H-pyrazol-4-yl)nicotinamido)pyrrolidine-1-carboxylate]
pIC50: 6.00 to 7.00

Cn1cc(-c2cnc(N)c(C(=O)N[C@@H]3CCN(CCc4cccc(Br)c4)C3)c2)cn1 [Example 234, (R)-2-amino-N-(1-(3-bromophenethyl)pyrrolidin-3-yl)-5-(1-methyl-1H-pyrazol-4-yl)nicotinamide]
pIC50: 6.00 to 7.00

Cn1cc(-c2cnc(N)c(C(=O)N[C@@H]3CCN(c4ncc([N+](=O)[O-])s4)C3)c2)cn1 [Example 138, (R)-2-amino-5-(1-methyl-1H-pyrazol-4-yl)-N-(1-(5-nitrothiazol-2-yl)pyrrolidin-3-yl)nicotinamide]
pIC50: < 6.00

Cn1cc(-c2cnc(N)c(C(=O)N[C@@H]3CCN(Cc4ccc(F)c(C5=CCNCC5)c4)C3)c2)cn1 [Example 252, (R)-2-amino-N-(1-(4-fluoro-3-(1,2,3,6-tetrahydropyridin-4-yl)benzyl)pyrrolidin-3-yl)-5-(1-methyl-1H-pyrazol-4-yl)nicotinamide]
pIC50: < 6.00

Cn1cc(-c2cnc(N)c(C(=O)N[C@@H]3CCN(C(=O)Nc4ccccc4)C3)c2)cn1 [Example 1, (R)-2-amino-5-(1-methyl-1H-pyrazol-4-yl)-N-(1-(phenylcarbamoyl)pyrrolidin-3-yl)nicotinamide]
pIC50: 6.00 to 7.00

Cn1cc(-c2cnc(N)c(C(=O)N[C@@H]3CN(C(=O)c4ccc(-c5ccccc5)cc4)C[C@@H]3O)c2)cn1 [Example 743, N-((3R,4S)-1-([1,1′-biphenyl]-4-carbonyl)-4-hydroxypyrrolidin-3-yl)-2-amino-5-(1-methyl-1H-pyrazol-4-yl)nicotinamide]
pIC50: < 6.00

Cn1cc(-c2cnc(N)c(C(=O)N[C@@H]3CCN(C(=O)c4ccc5[nH]ccc5c4)C3)c2)cn1 [Example 502, (R)—N-(1-(1H-indole-5-carbonyl)pyrrolidin-3-yl)-2-amino-5-(1-methyl-1H-pyrazol-4-yl)nicotinamide]
pIC50: < 6.00

CCOC(=O)C1CN(C(=O)c2ccc(-c3ccccc3)cc2)CC1NC(=O)c1cc(-c2cnn(C)c2)cnc1N (centres unmarked) [Example 687, ethyl 1-([1,1′-biphenyl]-4-carbonyl)-4-(2-amino-5-(1-methyl-1H-pyrazol-4-yl)nicotinamido)pyrrolidine-3-carboxylate]
pIC50: < 6.00

CN1CCN(Cc2cccc(-c3ccc(NC(=O)N4CC[C@@H](NC(=O)c5cc(-c6cnn(C)c6)cnc5N)C4)cc3)c2)CC1 [Example 272, (R)-2-amino-5-(1-methyl-1H-pyrazol-4-yl)-N-(1-((3′-((4-methylpiperazin-1-yl)methyl)-[1,1′-biphenyl]-4-yl)carbamoyl)pyrrolidin-3-yl)nicotinamide]
pIC50: 6.00 to 7.00

Cn1cc(-c2cnc(N)c(C(=O)N[C@@H]3CCN(C(=O)O[C@H]4CCC[C@@H]4OCc4ccccc4)C3)c2)cn1 [Example 120, (1S,2S)-2-(benzyloxy)cyclopentyl (R)-3-(2-amino-5-(1-methyl-1H-pyrazol-4-yl)nicotinamido)pyrrolidine-1-carboxylate]
pIC50: < 6.00

Cn1cc(-c2cnc(N)c(C(=O)N[C@@H]3CCN(C(=O)c4cccc5c4oc4ccccc45)C3)c2)cn1 [Example 501, (R)-2-amino-N-(1-(dibenzo[b,d]furan-4-carbonyl)pyrrolidin-3-yl)-5-(1-methyl-1H-pyrazol-4-yl)nicotinamide]
pIC50: < 6.00

Nc1ncccc1C(=O)N[C@@H]1CCN(C(=O)c2ccc(-c3ccc(F)cc3Cl)cc2)C1 [Example 579, (R)-2-amino-N-(1-(2′-chloro-4′-fluoro-[1,1′-biphenyl]-4-carbonyl)pyrrolidin-3-yl)nicotinamide]
pIC50: 7.00 to 8.00

CN1CCN(Cc2ccc(-c3cc(CN4CC[C@@H](NC(=O)c5cc(-c6cnn(C)c6)cnc5N)C4)ccc3F)cc2)CC1 [Example 633, (R)-2-amino-N-(1-((6-fluoro-4′-((4-methylpiperazin-1-yl)methyl)-[1,1′-biphenyl]-3-yl)methyl)pyrrolidin-3-yl)-5-(1-methyl-1H-pyrazol-4-yl)nicotinamide]
pIC50: 6.00 to 7.00

Cn1cc(-c2cnc(N)c(C(=O)N[C@@H]3CCN(Cc4cccc(OCc5ccccc5)c4)C3)c2)cn1 [Example 222, (R)-2-amino-N-(1-(3-(benzyloxy)benzyl)pyrrolidin-3-yl)-5-(1-methyl-1H-pyrazol-4-yl)nicotinamide]
pIC50: 6.00 to 7.00

Cn1cc(-c2cnc(N)c(C(=O)N[C@@H]3CCN(C(=O)Oc4cccc(-c5cccc(C(=O)NCCC#N)c5)c4)C3)c2)cn1 [Example 277, 3′-((2-cyanoethyl)carbamoyl)-[1,1′-biphenyl]-3-yl (R)-3-(2-amino-5-(1-methyl-1H-pyrazol-4-yl)nicotinamido)pyrrolidine-1-carboxylate]
pIC50: 6.00 to 7.00

Cn1cc(-c2cnc(N)c(C(=O)N[C@@H]3CCN(C(=O)c4ccc(C5=CCCCC5)cc4)C3)c2)cn1 [Example 494, (R)-2-amino-5-(1-methyl-1H-pyrazol-4-yl)-N-(1-(2′,3′,4′,5′-tetrahydro-[1,1′-biphenyl]-4-carbonyl)pyrrolidin-3-yl)nicotinamide]
pIC50: 7.00 to 8.00

CN1CCC(Oc2ccc3ccc(OC(=O)N4CC[C@@H](NC(=O)c5cc(-c6cnn(C)c6)cnc5N)C4)cc3c2)CC1 [Example 297, 7-((1-methylpiperidin-4-yl)oxy)naphthalen-2-yl (R)-3-(2-amino-5-(1-methyl-1H-pyrazol-4-yl)nicotinamido)pyrrolidine-1-carboxylate]
pIC50: 6.00 to 7.00

Cn1cc(-c2cnc(N)c(C(=O)N[C@@H]3CCN(C(=O)Oc4cccc(-c5cnn(C6CCNCC6)c5)c4)C3)c2)cn1 [Example 285, 3-(1-(piperidin-4-yl)-1H-pyrazol-4-yl)phenyl (R)-3-(2-amino-5-(1-methyl-1H-pyrazol-4-yl)nicotinamido)pyrrolidine-1-carboxylate]
pIC50: 6.00 to 7.00

Cn1cc(-c2cnc(N)c(C(=O)N[C@@H]3CCN(C(=O)Oc4cccc(-c5cccc(CN6CCCNCC6)c5)c4)C3)c2)cn1 [Example 341, 3′-((1,4-diazepan-1-yl)methyl)-[1,1′-biphenyl]-3-yl (R)-3-(2-amino-5-(1-methyl-1H-pyrazol-4-yl)nicotinamido)pyrrolidine-1-carboxylate]
pIC50: 7.00 to 8.00

Cn1cc(-c2cnc(N)c(C(=O)N[C@@H]3CCN(C(=O)c4ccc(-c5ccccc5)nc4)C3)c2)cn1 [Example 398, (R)-2-amino-5-(1-methyl-1H-pyrazol-4-yl)-N-(1-(6-phenylnicotinoyl)pyrrolidin-3-yl)nicotinamide]
pIC50: 6.00 to 7.00

CN1CCC(NCc2ccc(-c3ccc(C(=O)N4CC[C@@H](NC(=O)c5cc(-c6cnn(C)c6)cnc5N)C4)cc3)cc2)CC1 [Example 549, (R)-2-amino-5-(1-methyl-1H-pyrazol-4-yl)-N-(1-(4′-(((1-methylpiperidin-4-yl)amino)methyl)-[1,1′-biphenyl]-4-carbonyl)pyrrolidin-3-yl)nicotinamide]
pIC50: 6.00 to 7.00

Cn1cc(-c2cnc(N)c(C(=O)N[C@@H]3CCN(C(=O)c4ccc(-c5ccc(C(F)(F)F)cc5C(F)(F)F)cc4)C3)c2)cn1 [Example 374, (R)-2-amino-N-(1-(2′,4′-bis(trifluoromethyl)-[1,1′-biphenyl]-4-carbonyl)pyrrolidin-3-yl)-5-(1-methyl-1H-pyrazol-4-yl)nicotinamide]
pIC50: < 6.00

CN(C)CCCOc1ccc(-c2ccc(C(=O)N3CC[C@@H](NC(=O)c4cc(-c5cnn(C)c5)cnc4N)C3)cc2)cc1 [Example 551, (R)-2-amino-N-(1-(4′-(3-(dimethylamino)propoxy)-[1,1′-biphenyl]-4-carbonyl)pyrrolidin-3-yl)-5-(1-methyl-1H-pyrazol-4-yl)nicotinamide]
pIC50: 7.00 to 8.00

Cn1cc(-c2cnc(N)c(C(=O)N[C@@H]3CCCN(C(=O)c4ccc(-c5ccccc5)cc4)C3)c2)cn1 [Example 347, (R)—N-(1-([1,1′-biphenyl]-4-carbonyl)piperidin-3-yl)-2-amino-5-(1-methyl-1H-pyrazol-4-yl)nicotinamide]
pIC50: < 6.00

Cn1cc(-c2cnc(N)c(C(=O)N[C@@H]3CCN(C(=O)c4ccc(-c5ccc(CCC(=O)O)cc5)cc4)C3)c2)cn1 [Example 678, (R)-3-(4′-(3-(2-amino-5-(1-methyl-1H-pyrazol-4-yl)nicotinamido)pyrrolidine-1-carbonyl)-[1,1′-biphenyl]-4-yl) propanoic acid]
pIC50: 6.00 to 7.00

Cn1cc(-c2cnc(N)c(C(=O)N[C@@H]3CCN(C(=O)O[C@@H]4CCN(c5ccccc5)C4)C3)c2)cn1 [Example 127, (R)-1-phenylpyrrolidin-3-yl (R)-3-(2-amino-5-(1-methyl-1H-pyrazol-4-yl)nicotinamido)pyrrolidine-1-carboxylate]
pIC50: < 6.00

Cn1cc(-c2cnc(N)c(C(=O)N[C@@H]3CCN(C(=O)Oc4cccc(OCC5CCNCC5)c4)C3)c2)cn1 [Example 304]
pIC50: 6.00 to 7.00
